In US8268829B2, “Substituted pyrimidines useful as protein kinase inhibitors” (Vertex Pharmaceuticals Inc., priority 2002, dated 2012) one finds melting point data, which are given here for eleven molecules.

As for `CCC(=O)Nc1ccc(Sc2nc(Nc3cc(C)n[nH]3)cc(N3CC(C)NC(C)C3)n2)cc1` (centres unmarked) [Compound I-19], the melting point (commonly the temperature, or range, at which the solid turns liquid) is 151 to 152 °C.
Molecule `CCC(=O)Nc1ccc(Sc2nc(Nc3cc(C)n[nH]3)cc(N3CCC(N)C3)n2)cc1` (centres unmarked) [Compound I-20] returned a melting point of 159 to 160 °C.
For `Cc1cc(Nc2cc(NCCN3CCCC3)nc(Sc3ccc(NC(=O)C4CC4)cc3)n2)[nH]n1` [Compound I-29], the melting point is 220 to 222 °C.
The molecule `N#CCCN1CCN(c2cc(Nc3ccn[nH]3)nc(Sc3ccc(NC(=O)C4CC4)cc3)n2)CC1` [Compound I-37] gave a melting point of 131 to 132 °C.
For the molecule `CS(=O)(=O)N1CCN(c2cc(Nc3ccn[nH]3)nc(Sc3ccc(NC(=O)C4CC4)cc3)n2)CC1` [Compound I-42], the melting point was 168 to 169 °C.
`CS(=O)(=O)CCN1CCN(c2cc(Nc3ccn[nH]3)nc(Sc3ccc(NC(=O)C4CC4)cc3)n2)CC1` [Compound I-45] registered a melting point of 154 to 155 °C.
On to `CC1CN(c2cc(Nc3ccn[nH]3)nc(Sc3ccc(NC(=O)C4CC4)cc3)n2)CCN1` (centres unmarked) [Compound I-46], for which the melting point was in the range of 160 to 161 °C.
The same measure for `O=C(Nc1ccc(Sc2nc(Nc3ccn[nH]3)cc(N3CCN(CC(=O)N4CCOCC4)CC3)n2)cc1)C1CC1` [Compound I-47]: 158 to 159 °C; for `CC(C)(C)N1CCN(c2cc(Nc3ccn[nH]3)nc(Sc3ccc(NC(=O)C4CC4)cc3)n2)CC1` [Compound I-53]: 167 to 169 °C.
The same measure for `Cc1cc(Nc2cc(N3CCOCC3)nc(Sc3ccc(NC(=O)C4CC4)cc3)n2)[nH]n1` [Compound I-61]: 238 to 239 °C.
In the case of `Cc1cc(Nc2cc(N3CCNCC3)nc(Sc3ccc(NC(=O)C(C)(C)C)cc3)n2)[nH]n1` [Compound V-3], the melting point fell in the range of 178 to 181 °C.
